The subject of this test is phenylquinone writhing in mice. In words: Phenylquinone Writhing Assay (analgesia). The settings on record: Mus musculus, po, read-out: Phenylquinone Writhing Assay (% Control), percent analgesia; for responders at 60 mg/kg: 60 mg/kg oral; for responders at 25 mg/kg: 25 mg/kg oral; for responders at 50 mg/kg: 50 mg/kg oral; for responders at 100 mg/kg: 100 mg/kg oral; for responders at 30 mg/kg: 30 mg/kg oral; for responders at 75 mg/kg: 75 mg/kg oral. It counts as in vivo, mouse (Carworth CF1 male mice). As for the experimental part: The phenylquinone writhing test was employed to evaluate analgesic activity according to the following procedure:
Phenylquinone (phenyl-p-benzoquinone, No. 7104, Eastman Organic Chemicals) is made up as a 0.02% aqueous solution in 5% ethyl alcohol. Phenylquinone solutions are made up fresh twice daily. Standard reference agents and the test compounds are dissolved or suspended in a 0.25% methylcellulose solution. A control group consisting of ten mice (Carworth CF1 male mice) are administered the 0.02% phenylquinone solution at a dose of 0.25 ml/mouse. The mice are housed individually and observed closely for ten minutes for exhibition of writhing. The onset of writhing occurs within three minutes and 100% of the mice must writhe within ten minutes. Test compounds are administered orally to groups of ten mice. The volume given is 0.01 ml/gram of body weight. Activity can be studied at 15, 30, 60, and 120 minutes after oral administration. After the designated time interval of a dose group has elapsed, the mice are challenged with phenylquinone intraperitoneally. Complete blocking of the writhing syndrom for the ten minute observation period in any one mouse is considered a positive analgesic response for that mouse. Conversely, if any mouse writhes definitely once it is considered not to be protected. The number of mice not writhing in group multiplied by ten equals percent analgesia for that dose at that time interval.

Read-outs that look alike come from different tables or passages of the source.

With `CSc1nncc(-c2cccc(Cl)c2)n1` [Example 15, 3-methylthio-5-(3'-chlorophenyl)-1,2,4-triazine], for the setting “0.25 h, 15 Min.”, the responders at 60 mg/kg is 10%.
`COc1nncc(-c2cccs2)n1` [Example 66, 3-methoxy-5-(2'-thienyl)-1,2,4-triazine]: the responders at 25 mg/kg was 20% (0.25 h, 15 Min.) and 10% (0.5 h, 30 Min.). Besides, the responders at 50 mg/kg stood at 80% (0.25 h, 15 Min.); 50% (0.5 h, 30 Min.); 20% (1 h, 60 Min). Also, the responders at 60 mg/kg was 100% (0.25 h, 15 Min.); 80% (0.5 h, 30 Min.); 40% (1 h, 60 Min).
As for `NNc1nncc(-c2cccc(C(F)(F)F)c2)n1` [Example 67, 3-hydrazino-5-(3'-trifluoromethylphenyl)-1,2,4-triazine], the responders at 50 mg/kg runs as follows: (0.25 h, 15 Min.) 70%; (0.5 h, 30 Min.) 30%; (1 h, 60 Min) 30%. The responders at 100 mg/kg (0.25 h, 15 Min.) worked out at 10%; the responders at 100 mg/kg (0.5 h, 30 Min.) was found to be 60%; the responders at 100 mg/kg (1 h, 60 Min) was determined as 40%. Besides, the responders at 25 mg/kg by setting is: (0.5 h, 30 Min.) 20%; (1 h, 60 Min) 10%.
Turning to `COc1cccc(-c2cnnc(SC)n2)c1` [Example 68, 3-methylthio-5-(3'-methoxyphenyl)-1,2,4-triazine], the responders at 30 mg/kg (0.25 h, 15 Min.) came to 10%.
On to `COc1cccc(-c2cnnc(OC)n2)c1` [Example 69, 3-methoxy-5-(3'-methoxyphenyl)-1,2,4-triazine], for which the responders at 50 mg/kg was found to be 10% (0.25 h, 15 Min.); 20% (0.5 h, 30 Min.); 20% (1 h, 60 Min). Moreover, the responders at 100 mg/kg is, setting by setting: (0.25 h, 15 Min.) 10%; (0.5 h, 30 Min.) 20%; (1 h, 60 Min) 10%.
On to `CSc1nncc(-c2ccc(Cl)s2)n1` [Example 70, 3-methylthio-5-(5'-chloro-2'-thienyl)-1,2,4-triazine], for which the responders at 50 mg/kg worked out at 10% (0.25 h, 15 Min.); 20% (0.5 h, 30 Min.); 10% (1 h, 60 Min). Besides, the responders at 100 mg/kg by setting is: (0.25 h, 15 Min.) 10%; (0.5 h, 30 Min.) 20%; (1 h, 60 Min) 10%.
Consider `CSc1nncc(-c2cccc3ccccc23)n1` [Example 71, 3-methylthio-5-(1'-naphthyl)-1,2,4-triazine], for which the responders at 100 mg/kg (0.5 h, 30 Min.) was 10% and the responders at 100 mg/kg (1 h, 60 Min) is 20%.
Consider `CSc1nncc(-c2ccc(C)cc2)n1` [Example 72, 3-methylthio-(4'-methylphenyl)-1,2,4-triazine], for which, for the setting “0.25 h, 15 Min.”, the responders at 100 mg/kg was determined as 20%.
As for `CSc1nncc(-c2ccc(Cl)cc2)n1` [Example 74, 3-methylthio-5-(4'-chlorophenyl)-1,2,4-triazine], where the note is “0.25 h, 15 Min.”, the responders at 100 mg/kg is 10%.
On to `COc1nncc(-c2cccc(Cl)c2)n1` [Example 75, 3-methoxy-5-(3'-chlorophenyl)-1,2,4-triazine], for which the responders at 60 mg/kg is, setting by setting: (0.25 h, 15 Min.) 100%; (0.5 h, 30 Min.) 90%; (1 h, 60 Min) 70%.
As for `CSc1nnc(-c2ccco2)c(-c2ccco2)n1` [Example 76, 3-methylthio-5,6-bis-(2'-furyl)-1,2,4-triazine], the responders at 30 mg/kg (0.25 h, 15 Min.) is 10%.
Regarding `NNc1nnc(-c2ccco2)c(-c2ccco2)n1` [Example 77, 3-hydrazino-5,6-bis-(2'-furyl)-1,2,4-triazine], the responders at 25 mg/kg runs as follows: (0.25 h, 15 Min.) 20%; (0.5 h, 30 Min.) 20%; (1 h, 60 Min) 20%. In addition, the responders at 75 mg/kg reads like this: (0.25 h, 15 Min.) 20%; (0.5 h, 30 Min.) 10%; (1 h, 60 Min) 10%.
With `Cc1ccc(-c2nnc(C)nc2-c2ccc(C)cc2)cc1` [Example 78, 3-methyl-5,6-bis-(4'-methylphenyl)-1,2,4-triazine], the responders at 50 mg/kg reads like this: (0.25 h, 15 Min.) 20%; (0.5 h, 30 Min.) 20%; (1 h, 60 Min) 20%. Besides, the responders at 100 mg/kg (0.25 h, 15 Min.) stood at 50%; the responders at 100 mg/kg (0.5 h, 30 Min.) amounted to 80%; the responders at 100 mg/kg (1 h, 60 Min) is 50%.
For the compound `Cc1nnc(S(C)(=O)=O)nc1C` [Example 79, 3-methylsulfonyl-5,6-dimethyl-1,2,4-triazine], the responders at 100 mg/kg reads like this: (0.5 h, 30 Min.) 30%; (1 h, 60 Min) 30%.
Turning to `COc1ccc(-c2nnc(SC)nc2-c2ccc(OC)c(OC)c2)cc1OC` [Example 80, 3-methylthio-5,6-bis(3',4'-dimethoxyphenyl)-1,2,4-triazine], the responders at 100 mg/kg reads like this: (0.25 h, 15 Min.) 10%; (0.5 h, 30 Min.) 10%.
Take `c1ccc(-c2nnc(-c3ccccn3)nc2-c2ccccc2)cc1` [Example 81, 3-(2'-pyridyl)-5,6-diphenyl-1,2,4-triazine]: the responders at 100 mg/kg is, setting by setting: (0.25 h, 15 Min.) 10%; (0.5 h, 30 Min.) 20%.
On to `COc1ncc(-c2ccccc2)nn1` [Example 82, 3-methoxy-6-phenyl-1,2,4-triazine], for which, for the setting “0.25 h, 15 Min.”, the responders at 25 mg/kg is 10% and the responders at 50 mg/kg amounted to 10%. Moreover, the responders at 50 mg/kg (0.5 h, 30 Min.) came out at 10%.
With `COc1cc(-c2cnnc(SC)n2)ccc1OCc1ccccc1` [Example 83, 3-methylthio-5-(3'-methoxy-4'-benzyloxyphenyl)-1,2,4-triazine], the responders at 100 mg/kg (0.25 h, 15 Min.) turned out to be 10%.
`CSc1nncc(-c2c3ccccc3cc3ccccc23)n1` [Example 84, 3-methylthio-5-(9'-anthracenyl)-1,2,4-triazine]: the responders at 100 mg/kg runs as follows: (0.5 h, 30 Min.) 10%; (1 h, 60 Min) 20%.
Take `COc1nncc(-c2c3ccccc3cc3ccccc23)n1` [Example 85, 3-methoxy-5-(9'-anthracenyl)-1,2,4-triazine]: the responders at 100 mg/kg (0.25 h, 15 Min.) is 10%.
Still for that read-out and setting: in the case of `CSc1nncc(-c2ccc3c(c2)OCO3)n1` [Example 86, 3-methylthio-5-(3',4'-methylenedioxyphenyl)-1,2,4-triazine] it was 20%.
In the case of `CSc1nncc(C(c2ccccc2)c2ccccc2)n1` [Example 87, 3-methylthio-5-diphenylmethyl-1,2,4-triazine], the responders at 100 mg/kg is, setting by setting: (0.25 h, 15 Min.) 10%; (1 h, 60 Min) 10%.
Turning to `CCOc1ccc(-c2cnnc(SC)n2)cc1` [Example 88, 3-methylthio-5-(4'-ethoxyphenyl)-1,2,4-triazine], the responders at 100 mg/kg (0.25 h, 15 Min.) stood at 10%.
Take `COc1nncc(-c2c(C)cc(C)cc2C)n1` [Example 89, 3-methoxy-5-(2',4',6'-trimethylphenyl)-1,2,4-triazine]: the responders at 100 mg/kg is, setting by setting: (0.25 h, 15 Min.) 10%; (1 h, 60 Min) 10%.
As for `Oc1nncc(-c2ccccc2)n1` [Example 90, 3-hydroxy-5-phenyl-1,2,4-triazine], for the setting “1 h, 60 Min”, the responders at 100 mg/kg amounted to 20%.
For the compound `COc1ccc(-c2cnnc(OC)n2)cc1` [Example 91, 3-methoxy-5-(4'-methoxyphenyl)-1,2,4-triazine], the responders at 100 mg/kg (0.25 h, 15 Min.) stood at 30% and the responders at 100 mg/kg (0.5 h, 30 Min.) worked out at 10%.
Turning to `COc1nnc(-c2ccc(OC)c(OC)c2)c(-c2ccc(OC)c(OC)c2)n1` [Example 92, 3-methoxy-5,6-bis(3',4'-dimethoxyphenyl)-1,2,4-triazine], the responders at 100 mg/kg runs as follows: (0.25 h, 15 Min.) 10%; (0.5 h, 30 Min.) 10%.
With `COc1ccc(-c2nnc(SC)nc2-c2ccc(OC)cc2)cc1` [Example 93, 3-methylthio-5,6-bis(4'-methoxyphenyl)-1,2,4-triazine], the responders at 100 mg/kg is, setting by setting: (0.25 h, 15 Min.) 20%; (0.5 h, 30 Min.) 30%; (1 h, 60 Min) 30%.
`CC(C)Oc1nnc(-c2ccccc2)c(-c2ccccc2)n1` [Example 95, 3-isopropoxy-5,6-diphenyl-1,2,4-triazine]: the responders at 100 mg/kg is 10% (0.25 h, 15 Min.); 10% (0.5 h, 30 Min.); 20% (1 h, 60 Min).
On to `COc1nnc(-c2ccc(Cl)cc2)c(-c2ccc(Cl)cc2)n1` [Example 96, 3-methoxy-5,6-bis(4'-chlorophenyl)-1,2,4-triazine], for which the responders at 100 mg/kg came to 30% (0.5 h, 30 Min.) and 10% (1 h, 60 Min).
